Values after ≈ are worked out from the molar mass of the structure shown. Like-named read-outs stand apart in the source and are kept apart here.
Experiments:
[1] = system: FBXW7/c-Jun interaction; assay: Immunoprecipitation, ubiquitination and FBXW7/c-Jun interaction; type: cell-based, human
Description: To investigate whether the ubiquitination of c-Jun is suppressed through the inhibition of c-Jun and FBXW7 binding by DGG200064, c-Jun immunoprecipitation was done to observe protein–protein interaction (Figure 4). E3 ligase, such as FBXW7, binds the protein to the ubiquitin chain through covalent bonds and rapidly degrades the protein through 26S proteasome. When treated with MG132 as a proteasome inhibitor, the ubiquitination of c-Jun increased compared to both control HCT116 and DLD1 cells. In contrast, the c-Jun ubiquitination was inhibited by DGG200064. The binding between c-Jun and FBXW7 was reduced with DGG200064 treatment. The FBXW7 protein, also known as CDC4, is a component of the SCF complex ubiquitin ligase and is known as a modulator of several substrates including cyclin E, c-Myc, c-Jun, and Notch. To check the selectivity of DGG200064 towards FBXW7 substrates, the change of c-Jun, cyclin E, and c-Myc by DGG200064 was analyzed. […] Cyclin E immunoprecipitation was done to test whether the ubiquitination of cyclin E by FBXW7 is inhibited by DGG200064 in HCT116 (Figure S2b, Supplementary Materials). There were no changes in cyclin E ubiquitination with DGG200064 treatment.
To identified ubiquitination of c-Jun by DGG200064, HCT116 cells were treated with/without MG132 (10 μM) for 6h, DGG200064 (50 nM) for 18 h. The cell lysate was prepared using RIPA buffer for immunoprecipitation. Each lysate was mixed with antibodies (1 μg/mL) of c-Jun or MYC at 4 °C overnight in immunoprecipitation buffer containing 50 mM Tris-Cl,150 mM NaCl, 1 mM EDTA, 0.5% Triton X-100, pH 7.4, and reacted with 10 μL of protein A/G beads UltraLink Resin (50:50 resin: buffer slurry condition) (Peirce, #35133) for 2 h on RT for precipitation. After reaction and centrifugation at 3000 rpm for 3 min, the immunoprecipitated samples were washed with 500 μL of immunoprecipitation buffer by tapping and centrifuged. The washing was repeated five times before western blotting.

[2] = system: SW620; assay: SRB assay, colon cancer cell growth inhibition; type: cell-based; conditions: Homo sapiens, SW-620, 48 h
Method: (§1) A series of 4-phenyl-N-(thieno[2,3-b]pyrazin-3-yl)piperazine-1-carboxamides derivatives 7a–7i were tested for the colon cancer cell growth inhibition effect using the SRB assay (Table 2). […] Compounds 7a and 7b, containing chlorine at the C6 position of thieno[2,3-b]pyrazine ring, have weaker anticancer activity than its proton-containing derivatives 7c–7i. On the other hand, 7c has shown higher inhibition activity than 7d with methyl substituents at the C3 and C5 positions of the phenyl ring. […] Substitutions with one fluorine atom in the phenyl ring could not improve the inhibition effect of the compounds 7g–7h.
(§2) The HCT116, HCT8, KM12, HCT15, HT29, COLO-205, SW620 cell line was obtained from the National Cancer Institute (Material Transfer Agreement number: 2702–09). DLD1 cell line was obtained from the Korean cell line bank. Cells were cultured in complete Roswell Park Memorial Institute (RPMI) 1640 medium (Hyclone, South Logan, UT, USA) containing 10% fetal bovine serum (Hyclone, South Logan, UT, USA) in an atmosphere of 5% CO2 and 100% humidity at 37 °C. A small interfering RNA (siRNA) duplex targeting human c-Jun and FBXW7 (Genolution, Seoul, Korea) were introduced into cells using Lipofector-EXT (AptaBio, Yongin, Korea), according to the manufacturer’s instructions. As negative controls, cells were incubated with Lipofector-EXT (AptaBio, Yongin, KOR) and a negative siRNA (Genolution, Seoul, Korea).
(§3) Cells (100 μL containing 5000–10,000 cells/well) were incubated in 96 well microtiter plates. After 24 h, drugs were added (100 μL) to each well and the cultures were incubated for 48 h at 37 °C. The cells were then fixed in TCA (50 μL per well). The plates were incubated for a minimum of 1 h or a maximum of 3 h at 4 °C. The liquid was removed from the plate, which was then rinsed five times with water and allowed to dry at room temperature (rt) for approximately 12–24 h. The fixed cells were stained with 100 μL Sulforhodamine B (SRB) solution for 5 min at rt. After staining, the plate was washed three times with 1% glacial acetic acid and dried at rt for approximately 12–24 h. The SRB was then solubilized in 10 mM Tris buffer, and the absorbance was read at 515 nm. The effect of the drugs was expressed as GI50 (50% growth inhibition).

[3] = system: KM12; assay: SRB assay, colon cancer cell growth inhibition; type: cell-based; conditions: Homo sapiens, 48 h
Method: as §1, §2, §3

[4] = system: Colo205; assay: SRB assay, colon cancer cell growth inhibition; type: cell-based; conditions: Homo sapiens, COLO 205, 48 h
Method: as §1, §2, §3

[5] = system: HCT116; assay: SRB assay, colon cancer cell growth inhibition; type: cell-based; conditions: Homo sapiens, HCT-116; HCT116, SRB, 48 h
Method: as §1, §2, §3

[6] = system: HCT8; assay: SRB assay, colon cancer cell growth inhibition; type: cell-based; conditions: Homo sapiens, HCT-8, 48 h
Method: as §1, §2, §3

[7] = system: HCT15; assay: SRB assay, colon cancer cell growth inhibition; type: cell-based; conditions: Homo sapiens, HCT-15, 48 h
Method: as §1, §2, §3

[8] = system: HT29; assay: SRB assay, colon cancer cell growth inhibition; type: cell-based; conditions: Homo sapiens, HT-29, 48 h
Method: as §1, §2, §3

[9] = Solubility (logS); type: physicochemical; conditions: for solubility: thermodynamic from solid, read-out: Solubility (logS) Equilibrium (converted)
Description: Table 4 Physicochemical Properties of the Lead Compounds 7c. | column: 7c

COc1cc(OC)cc(N2CCN(C(=O)Nc3nc4sccc4nc3OC)CC2)c1 [Compound 7c, 4-(3,5-Dimethoxyphenyl)-N-(2-methoxythieno[2,3-b]pyrazin-3-yl)piperazine-1-carboxamide]
cyclin E ubiquitination ([1]; HCT116, cyclin E immunoprecipitation): no changes | binding between c-Jun and FBXW7 ([1]; HCT116 and DLD1, 50 nM, 18 h, c-Jun immunoprecipitation): reduced | c-Jun ubiquitination ([1]; HCT116 and DLD1, DGG200064 50 nM 18 h, MG132 10 μM 6 h): inhibited | GI50 [2]: 27 nM | GI50 [3]: 8 nM | GI50 [4]: 24 nM | GI50 [5]: 12 nM | GI50 [6]: 54 nM | GI50 [7]: 26 nM | GI50 [8]: 17 nM | solubility ([9]; pH 2, aqueous buffer, pH2.0): 2090 µM (≈ 897 µg/mL) | solubility kinetic ([9]; pH 7.4, aqueous buffer, kinetic from dmso stock, pH7.4): 741 µM (≈ 318 µg/mL) | solubility ([9]; pH 7.4, aqueous buffer, pH7.4): 603 µM (≈ 259 µg/mL) | solubility ([9]; pH 9, aqueous buffer, pH9.0): 617 µM (≈ 265 µg/mL)

— PMC9143821, “Design and Synthesis of a Novel 4-aryl-N-(2-alkoxythieno [2,3-b]pyrazine-3-yl)-4-arylpiperazine-1-carboxamide DGG200064 Showed Therapeutic Effect on Colon Cancer through G2/M Arrest” (Pharmaceuticals, 2022)
